According to patent US20150125863A1, “CXCL5 AS A MARKER OF HORMONE ESCAPE IN PROSTATE CANCER” (Institut National de la Sante Recherche Medicale (INSERM), priority 2010, published 2015):

Assays:
[1] = tested on: CXCL5 RNA levels in CWR-R1 cells; assay: CXCL5 RNA levels by real-time PCR in CWR-R1 cells; assay type: cell-based; settings: CDFCS + 10^-8 M Dihydrotestosterone vs CDFCS (FIG. 5A)
Description: (§1) Results represent the mean±SD of 3 independent experiments.
as §1

[2] = tested on: CXCL5 RNA levels in LNCaP cells; settings: CDFCS + 10^-8 M Dihydrotestosterone vs CDFCS (FIG. 5B)
Method: CXCL5 RNA levels were measured by real-time PCR. CXCL5 levels in the presence of FCS were set to 1. Results represent the mean±SD of 3 independent experiments.
CWR-R1 and LNCaP cells were maintained in RPMI 1640 with Glutamax (Invitrogen, Carlsbad, USA), completed with 10% Foetal Calf Serum (FCS) and gentamycin. For androgen stimulations, cells were weaned off steroids before any experiment by culturing them in phenol red-free RPMI 1640 supplemented with 10% CDFCS (charcoal dextran-treated FCS) for 4 days.
Total RNA was prepared using TriReagent (Euromedex, Souffelweyersheim, France). The amount of RNA was estimated by spectrophotometry at 260 nm. Complementary DNAs (cDNA) were obtained from reverse transcription (RT) of 3 μg of total RNA in 13 μl of water RNase free. 1 μl of random hexanucleotides as primers (pd(N)6, 50 mM) in the presence of 1 μl of dNTPs (250 mM; Gibco BRL) were added to the RNA and incubated 5 minutes at 70° C. After, 5 μl of mix containing reverse transcriptase (1 μl) and reverse transcriptase buffer 5× (4 μl) were added to the RNA solution and incubated 1 h at 42° C. Real-time PCR quantification was then performed using a SYBR Green approach (Light Cycler; Roche) as previously described (Lucas et al. 2003 Biochem Biophys Res Commun 309:1011-1016). For each sample, CXCL5 mRNA levels were normalized with RS9 mRNA levels (reference gene).

CWR-R1 cells = assay: In vitro proliferation of CWR-R1 cells; assay type: cell-based; settings: CXCL5 1 or 50 ng/ml with 10^-5 M bicalutamide, 5 days (FIG. 6B)
Method: CWR-R1 cells were cultured in whole fetal calf serum (FCS), in the absence or in the presence of […] of bicalutamide. CXCL5 RNA levels were measured by real-time PCR. […] Results represent the mean±SD of 3 independent experiments. B. CXCL5 enhances the proliferation of CWR-R1 cells both in the absence and in the presence of the anti-androgen bicalutamide. CWR-R1 cells were cultured in FCS. Some cells were treated with 10^-5 M bicalutamide. The cells were either treated with Ethanol vehicle (C) or with CXCL5 (1 or 50 ng/ml). Proliferation was quantified 5 days after treatment by counting the cells.
2.5×10^4 cells per well were seeded in triplicate in 24-well culture plates in complete growth media previously described. Cell numbers were determined every two days for 6 days by counting with a malassez slide or by measuring of luciferase activity. For proliferation in complete fetal calf serum, cells were maintained in […] with RPMI 1640. To test the effects of androgens, cells were maintained in phenol-red free RPMI 1640 medium supplemented with 10% FCS.

[3] = tested on: CXCL5 expression in PC-3 cells; assay: Blocking experiments with shCXCL5, CXCL5 levels by Elisa in PC-3 cells; assay type: cell-based; settings: PC-3 cells transfected with shCXCL5 vector, compared to Non-Target shRNA Control Vector, after 4 days, Elisa (FIG. 9B)
Method: (§2) A. PC-3 cells were grown for 4 days and either non treated (Control) or treated with goat serum (diluted 1/20) as isotype control antibody (Isotype) or with 0.5 μg/ml of CXCL5 antibody (CXCL5 Ab). Medium with or without treatment was changed at day 2. Results represent the mean of luciferase activity±SD after 4 days of 3 independent experiments. B, C. PC-3 cells were transfected with Non-Target shRNA Control (shCt) or shCXCL5 vector. 4 days later, the medium was collected and CXCL5 levels were measured by Elisa (B). The number of cells was counted on day 4 (C). A representative experiment is shown here.
(§3) 10^5 PC-3 cells plated in 6 well plated in 10% FCS with RPMI 1640 were transfected with 4 μg of Non-Target shRNA Control Vector (ShC002, Mission Library, Sigma-Aldrich) or shCXCL5 vector (SHCLND-NM_002994-TRCN0000057934NM_002994.3-304s1c1TRC1, Sequence SEQ ID NO: 6: […] Mission Library, Sigma-Aldrich) using Jet-PEI® protocol in each well. 8 h after transfection medium was changed. CXCL5 secretion was quantified 48 h later in conditioned medium by ELISA (Duoset, DY254, R&D system). Cells were counted 4 days after transfection using malassez slide.

PC-3 cells = assay: Blocking experiments with shCXCL5, PC-3 cell proliferation; assay type: cell-based; settings: PC-3 cells transfected with shCXCL5 vector, cells counted on day 4 (FIG. 9C)
Method: as §2, §3

Molecule: C[C@]12CCC(=O)C[C@@H]1CC[C@@H]1[C@@H]2CC[C@]2(C)[C@@H](O)CC[C@@H]12 [dihydrotestosterone]
- effect on levels of CXCL5 RNA [1]: partially reduced
- effect on levels of CXCL5 RNA [2]: partially reduced

Molecule: recombinant CXCL5: recombinant C-X-C motif chemokine 5 added to CWR-R1 cells
- effect on the inhibition of proliferation by bicalutamide (CWR-R1 cells): partially alleviate

Molecule: shCXCL5: shRNA vector against CXCL5, SEQ ID NO: 6, Mission Library, Sigma-Aldrich (DNA CCGGGATCAGTAATCTGCAAGTGTTCTCGAGAACACTTGCAGATTACTGATCTTTTTG)
- CXCL5 expression [3]: strongly reduced
- inhibition of proliferation of PC-3 cells (PC-3 cells): more than 10 fold
